Data from publication PMC7355801, “Synthesis, Cyclooxygenases Inhibition Activities and Interactions with BSA of N-substituted 1H-pyrrolo[3,4-c]pyridine-1,3(2H)-diones Derivatives” (Molecules, 2020).

Experiments:
COX-1 = target: T1, COX-1 (Ovis aries, UniProt P05979); experiment: colorimetric COX peroxidase inhibition kit, […] nm; format: biochemical; details: read-out: Cyclooxygenase Inhibition Assay IC50 [μM] / COX-1
T1 construct: gene PTGS1; homodimer
T1 sequence (P05979 25-600): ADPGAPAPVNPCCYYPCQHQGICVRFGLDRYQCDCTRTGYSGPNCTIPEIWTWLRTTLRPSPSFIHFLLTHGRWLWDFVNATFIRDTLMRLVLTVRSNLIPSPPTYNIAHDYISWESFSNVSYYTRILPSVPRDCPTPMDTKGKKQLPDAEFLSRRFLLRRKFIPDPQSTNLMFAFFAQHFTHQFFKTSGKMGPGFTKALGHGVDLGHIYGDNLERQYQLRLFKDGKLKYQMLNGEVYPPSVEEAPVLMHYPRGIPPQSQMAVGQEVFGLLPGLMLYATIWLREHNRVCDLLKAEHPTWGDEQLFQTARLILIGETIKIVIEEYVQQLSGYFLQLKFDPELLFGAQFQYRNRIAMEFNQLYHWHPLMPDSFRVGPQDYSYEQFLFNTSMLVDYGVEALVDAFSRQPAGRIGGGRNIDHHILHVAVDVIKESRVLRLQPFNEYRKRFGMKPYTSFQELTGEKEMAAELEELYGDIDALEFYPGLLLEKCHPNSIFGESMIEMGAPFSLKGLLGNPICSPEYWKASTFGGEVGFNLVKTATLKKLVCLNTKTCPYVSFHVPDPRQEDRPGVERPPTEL

[1] = target: T2, bovine serum albumin (BSA) (Bos taurus, UniProt P02769); experiment: intrinsic fluorescence quenching, excitation […] nm; format: binding; details: 298 K, pH 7.4, no site marker
T2 construct: gene ALB; mature serum albumin, 583 residues, monomer
T2 sequence (P02769 25-607): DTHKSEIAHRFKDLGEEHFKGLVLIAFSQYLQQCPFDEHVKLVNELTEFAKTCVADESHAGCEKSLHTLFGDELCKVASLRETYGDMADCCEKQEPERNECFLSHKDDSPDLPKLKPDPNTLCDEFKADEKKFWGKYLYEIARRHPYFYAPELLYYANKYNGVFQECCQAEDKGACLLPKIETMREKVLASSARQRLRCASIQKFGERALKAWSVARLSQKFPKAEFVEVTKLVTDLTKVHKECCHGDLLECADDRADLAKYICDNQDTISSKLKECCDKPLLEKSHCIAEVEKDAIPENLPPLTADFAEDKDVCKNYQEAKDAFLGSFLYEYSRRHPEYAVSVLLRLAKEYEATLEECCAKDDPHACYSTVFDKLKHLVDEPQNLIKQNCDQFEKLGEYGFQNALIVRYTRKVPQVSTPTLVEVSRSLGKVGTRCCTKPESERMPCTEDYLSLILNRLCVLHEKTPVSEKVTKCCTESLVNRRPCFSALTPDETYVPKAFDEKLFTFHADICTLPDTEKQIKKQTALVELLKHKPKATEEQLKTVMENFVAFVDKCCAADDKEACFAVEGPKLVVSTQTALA

COc1nc(C)cc2c1C(=O)N(CCN1CCOCC1)C2=O [E]
IC50 (COX-1): 99.2 µM | Double log / Kb × 10^3 [dm^3.mol^-1] [1]: 6.24 × 10^3 dm^3·mol^−1

Cc1cc2c(c(=O)n1C)C(=O)N(CN1CCN(c3cccc(C(F)(F)F)c3)CC1)C2=O [B]
IC50 (COX-1): 93.2 µM | Double log / Kb × 10^3 [dm^3.mol^-1] [1]: 8.32 × 10^3 dm^3·mol^−1

COc1nc(C)cc2c1C(=O)N(CN1CCCC1)C2=O [D, 4-Methoxy–N-[1-(N-pyrrolidine)-methyl]-6-methyl-1H-pyrrolo[3.4-c]pyridine-1,3(2H)-dione]
IC50 (COX-1): 76.6 µM | Double log / Kb × 10^3 [dm^3.mol^-1] [1]: 4.82 × 10^3 dm^3·mol^−1

COc1ccccc1N1CCN(CN2C(=O)c3cc(C)n(C)c(=O)c3C2=O)CC1 [C]
IC50 (COX-1): 95.8 µM | Double log / Kb × 10^3 [dm^3.mol^-1] [1]: 11.51 × 10^3 dm^3·mol^−1

Cc1cc2c(c(=O)n1C)C(=O)N(CN1CCN(c3ccccc3)CC1)C2=O [A, 5,6-dimethyl-4-oxo-2-[(4-phenyl-1-piperazinyl)methyl]-1H-pyrrolo[3.4-c]pyridine-1,3(2H)-dione]
IC50 (COX-1): 81.6 µM | Double log / Kb × 10^3 [dm^3.mol^-1] [1]: 5.37 × 10^3 dm^3·mol^−1
